Results published in article PMC13586308, “Cell type–selective targeting by heterobifunctional protein binders via in-cell enrichment” (Nature Communications, 2026).
Where two headings read alike, the source gives them in different places.

What was measured:
FKBP12 [1] = target: T1, FKBP12 (Homo sapiens, UniProt P62942); experiment: competitive fluorescence polarization assay, binding to FKBP12; conditions: competitive FP assay
BRD4 = target: T2, BRD4 (Homo sapiens, UniProt O60885); experiment: NanoBRET BRD4, transient BRD4-NanoLuc in HEK293T cells; assay type: cell-based; conditions: intact HEK293 cells
T2 construct: full-length BRD4 fused to NanoLuc at N terminus; expressed in transfected cells; host or cells: HEK293T
Outline: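 BRD4 engagement measured in HEK293T cells transiently expressing N-terminal NanoLuc-BRD4 (20 h), with BRD Tracer-02 at its KD concentration. Cells equilibrated with serially diluted inhibitors for 2 h at 37 °C. Donor 450 nm/acceptor 610 nm BRET read; IC50 from normalized 3-parameter fit.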

FKBP12 [2] = target: T1, FKBP12; experiment: NanoBRET FKBP12 in intact HEK293 cells; assay type: cell-based
BRD4^BD1 = target: T3, BRD4^BD1 (Homo sapiens, UniProt O60885); experiment: competitive fluorescence polarization assay, BRD4 BD1 -/+ presenter protein; assay type: binding
T3 construct: to the isolated BD1 and BD2 domains of BRD2, BRD3 and BRD4

BRD4^BD2 = target: T4, BRD4^BD2 (Homo sapiens, UniProt O60885); experiment: competitive fluorescence polarization assay, BRD4 BD2 -/+ presenter protein; assay type: binding
T4 construct: to the isolated BD1 and BD2 domains of BRD2, BRD3 and BRD4

MV4-11 cells = experiment: CellTiter-Glo cell viability, MV4-11; assay type: cell-based, human; conditions: five days, without FKBP12 PROTAC
BRD3BD2 = target: T5, BRD3BD2 (Homo sapiens, UniProt Q15059); experiment: competitive FP assay, BRD3 BD2 -/+ FKBP12; assay type: binding
T5 construct: to the isolated BD1 and BD2 domains of BRD2, BRD3 and BRD4

BRD3BD1 = target: T6, BRD3BD1 (Homo sapiens, UniProt Q15059); experiment: competitive FP assay, BRD3 BD1 -/+ FKBP12; assay type: binding
T6 construct: to the isolated BD1 and BD2 domains of BRD2, BRD3 and BRD4

[3] = target: T7, His-BRD4^BD1 + eGFP-FKBP12 (Homo sapiens, UniProt O60885+P62942); experiment: HTRF ternary complex formation BRD4 BD1 + EGFP-FKBP12; assay type: binding; conditions: eGFP-FKBP12 5 µM, His-BRD4^BD1 100 nM; read-out: HTRF BRD4^BD1 + GFP-FKBP12 Kd
T7 construct: the His6-tag of the respective BD1 or BD2 domain of BRD4 and EGFP-labeled FKBP12

BRD4 43-463 Y390A [4] = target: BRD4 43-463 Y390A (Homo sapiens, UniProt O60885, Y390A); experiment: competitive FP assay, BRD4 tandem construct Y390A; assay type: binding
BRD4 43-463 Y390A [5] = experiment: competitive FP assay, BRD4 tandem construct Y390A; assay type: binding
BRD2BD1 = target: T8, BRD2BD1 (Homo sapiens, UniProt P25440); experiment: competitive FP assay, BRD2 BD1 -/+ FKBP12; assay type: binding
T8 construct: to the isolated BD1 and BD2 domains of BRD2, BRD3 and BRD4

INA-6 cells = experiment: cell viability, INA-6 FKBP12 knockout or NTC; assay type: cell-based, human; conditions: for IC50: Homo sapiens, INA-6
BRD4 43-463 = BRD4 43-463 (Homo sapiens, UniProt O60885); experiment: competitive FP assay, BRD4 tandem bromo domain construct; assay type: binding
BRD4 43-463 Y97A [6] = target: BRD4 43-463 Y97A (Homo sapiens, UniProt O60885, Y97A); experiment: competitive FP assay, BRD4 tandem construct Y97A; assay type: binding
BRD4 43-463 Y97A [7] = experiment: competitive FP assay, BRD4 tandem construct Y97A; assay type: binding
BRD2BD2 = BRD2BD2 (Homo sapiens, UniProt P25440); experiment: competitive FP assay, BRD2 BD2 -/+ FKBP12; assay type: binding
[8] = target: T9, His-BRD4^BD2 + eGFP-FKBP12 (Homo sapiens, UniProt O60885+P62942); experiment: HTRF ternary complex formation BRD4 BD2 + EGFP-FKBP12; assay type: binding; conditions: eGFP-FKBP12 5 µM, His-BRD4^BD2 100 nM; read-out: HTRF BRD4^BD2 + GFP-FKBP12 Kd
T9 construct: the His6-tag of the respective BD1 or BD2 domain of BRD4 and EGFP-labeled FKBP12

[9] = ratio of binding in absence or presence of FKBP12

Sequence of BRD2BD2 (P25440 344-453 limits assumed): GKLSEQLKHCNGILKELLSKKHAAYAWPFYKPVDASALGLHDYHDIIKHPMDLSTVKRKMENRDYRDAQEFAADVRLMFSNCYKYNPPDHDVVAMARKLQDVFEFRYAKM
T5 sequence (Q15059 306-415 limits assumed): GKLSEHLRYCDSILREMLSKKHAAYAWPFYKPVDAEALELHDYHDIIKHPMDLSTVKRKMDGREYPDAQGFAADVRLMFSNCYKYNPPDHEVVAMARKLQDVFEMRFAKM
T8 sequence (P25440 74-180 limits assumed): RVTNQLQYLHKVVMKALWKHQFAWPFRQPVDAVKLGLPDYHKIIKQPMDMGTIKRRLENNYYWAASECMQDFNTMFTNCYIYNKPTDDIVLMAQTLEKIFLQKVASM
T6 sequence (Q15059 34-140 limits assumed): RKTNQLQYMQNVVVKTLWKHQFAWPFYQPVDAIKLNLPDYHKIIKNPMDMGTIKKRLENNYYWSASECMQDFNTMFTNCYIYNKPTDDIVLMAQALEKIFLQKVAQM

**Q.** Which results are given for `Cc1sc2c(c1C)C(c1ccc(Cl)cc1)=NC(CC(=O)NCCOCCn1cc(COCC3CN(C(C)c4ccccn4)C(=O)C4CCCC3N4S(=O)(=O)c3cc(Cl)cc(Cl)c3)nn1)c1nnc(C)n1-2` (centres unmarked) [a1dj]?
**A.** Kd (FKBP12 [1]): 0.4 nM; IC50 (BRD4): 653 nM; IC50 (FKBP12 [2]): 2.6 nM; Kd (BRD4^BD1; 15 µM FKBP51FK1, read-out: Binding to BRD4BD1 + FKBP51FK1 Kd): 680 ± 100 nM; Kd (BRD4^BD1; absence of FKBP12, 2 nM JQ1-FL tracer, read-out: Binding to BRD4^BD1 - FKBP12 Kd): 470 ± 60 nM; Kd (BRD4^BD1; absence of FKBP51FK1 (SI Table 3), read-out: Binding to BRD4BD1 - FKBP51FK1 Kd): 250 ± 80 nM; Kd (BRD4^BD1; presence of 15 µM FKBP12, read-out: Binding to BRD4^BD1 + FKBP12 Kd (converted)): 39 nM; α BRD4^BD1 (binding cooperativity factor) (BRD4^BD1; [9]): 12; Kd (BRD4^BD1; values quoted in rebuttal letter (earlier version of Tab. 1), read-out: binding to BRD4BD1 + FKBP12): 32 nM; Kd (BRD4^BD2; 15 µM FKBP51FK1, read-out: Binding to BRD4BD2 + FKBP51FK1 Kd): 1000 ± 500 nM; Kd (BRD4^BD2; absence of FKBP12, 2 nM JQ1-FL tracer, read-out: Binding to BRD4^BD2 - FKBP12 Kd): 400 ± 90 nM; Kd (BRD4^BD2; absence of FKBP51FK1 (SI Table 3), read-out: Binding to BRD4BD2 - FKBP51FK1 Kd): 150 ± 50 nM; Kd (BRD4^BD2; presence of 15 µM FKBP12, read-out: Binding to BRD4^BD2 + FKBP12 Kd (converted)): 90 nM; α BRD4^BD2 (binding cooperativity factor) (BRD4^BD2; [9]): 4.4; IC50 (MV4-11 cells; Homo sapiens, MV4-11, 120 h, read-out: Cell toxicity (MV4-11) - FKBP12 PROTAC IC50): 0.09 nM; Cell toxicity (MV4-11) - FKBP12 PROTAC IC50 (MV4-11 cells): sub-nanomolar; α BRD3BD2 (BRD3BD2): 1.1; Kd (BRD3BD2; 15 µM FKBP12, read-out: Binding to BRD3BD2 + FKBP12 Kd): 150 ± 30 nM; Kd (BRD3BD2; absence of FKBP12, read-out: Binding to BRD3BD2 - FKBP12 Kd): 170 ± 50 nM; Kd (BRD3BD1; 15 µM FKBP12, read-out: Binding to BRD3BD1 + FKBP12 Kd): 25 ± 3 nM; Kd (BRD3BD1; absence of FKBP12, read-out: Binding to BRD3BD1 - FKBP12 Kd): 290 ± 35 nM; Kd [3]: 15 ± 3 nM; Kd (BRD4 43-463 Y390A [4]; Binding to BRD4 43-463 Y390A + FKBP12 Kd, 15 µM FKBP12): 9 ± 1 nM; Kd (BRD4 43-463 Y390A [4]; absence of FKBP12): 106 ± 7 nM; α BRD4 43-463 Y390A (BRD4 43-463 Y390A [5]): 12; α BRD2BD1 (BRD2BD1): 16; Kd (BRD2BD1; 15 µM FKBP12, read-out: Binding to BRD2BD1 + FKBP12 Kd): 38 ± 6 nM; Kd (BRD2BD1; absence of FKBP12, read-out: Binding to BRD2BD1 - FKBP12 Kd): 610 ± 90 nM; Cell toxicity INA-6 FKBP12 KO IC50 (INA-6 cells; FKBP12 knockout cells): hardly observable; IC50 (INA-6 cells; FKBP12 knockout cells, read-out: Cell toxicity INA-6 FKBP12 KO IC50): 480 nM; IC50 (INA-6 cells; nontargeted control (NTC) cells, read-out: Cell toxicity INA-6 NTC IC50): 0.4 nM; Cell toxicity INA-6 NTC IC50 (INA-6 cells; nontargeted control (NTC) cells): sub-nanomolar; Kd (BRD4 43-463; Binding to BRD4 43-463 + FKBP12 Kd, 15 µM FKBP12): 31 ± 2 nM; Kd (BRD4 43-463; Binding to BRD4 43-463 - FKBP12 Kd, absence of FKBP12): 266 ± 16 nM; Kd (BRD4 43-463 Y97A [6]; Binding to BRD4 43-463 Y97A + FKBP12 Kd, 15 µM FKBP12): 84 ± 10 nM; Kd (BRD4 43-463 Y97A [6]; Binding to BRD4 43-463 Y97A - FKBP12 Kd, absence of FKBP12): 100 ± 17 nM; α BRD4 43-463 Y97A (BRD4 43-463 Y97A [7]): 1.2; α BRD2BD2 (BRD2BD2): 2.9; Kd (BRD2BD2; 15 µM FKBP12, read-out: Binding to BRD2BD2 + FKBP12 Kd): 48 ± 17 nM; Kd (BRD2BD2; absence of FKBP12, read-out: Binding to BRD2BD2 - FKBP12 Kd): 140 ± 65 nM; Kd [8]: 30 ± 7 nM
